According to patent publication US20120122860A1, “SOLID FORMS OF SULFONAMIDES AND AMINO ACIDS” (Plexxikon, Inc., priority 2009, published 2012):

Tests used:
C-Raf = C-Raf (Homo sapiens, UniProt P04049); test: Kinase activity assay, C-Raf
Kit = Kit (Homo sapiens, UniProt P10721); test: Kinase activity assay, Kit
Src = Src (Homo sapiens, UniProt P12931); test: Kinase activity assay, Src
Kdr = Kdr (Homo sapiens, UniProt P35968); test: Kinase activity assay, Kdr
B-Raf V600E = B-Raf V600E (Homo sapiens, UniProt P15056, V600E); test: Kinase activity assay, B-Raf V600E; format: biochemical; details: read-out: activity toward kinase B-Raf V600E, IC50
B-Raf = B-Raf (Homo sapiens, UniProt P15056); test: Kinase activity assay, B-Raf; format: biochemical; details: read-out: activity toward kinase B-Raf, IC50
A-Raf = biological target: T1, A-Raf (Homo sapiens, UniProt P10398); test: Kinase activity assay, A-Raf
T1 sequence (P10398 1-606): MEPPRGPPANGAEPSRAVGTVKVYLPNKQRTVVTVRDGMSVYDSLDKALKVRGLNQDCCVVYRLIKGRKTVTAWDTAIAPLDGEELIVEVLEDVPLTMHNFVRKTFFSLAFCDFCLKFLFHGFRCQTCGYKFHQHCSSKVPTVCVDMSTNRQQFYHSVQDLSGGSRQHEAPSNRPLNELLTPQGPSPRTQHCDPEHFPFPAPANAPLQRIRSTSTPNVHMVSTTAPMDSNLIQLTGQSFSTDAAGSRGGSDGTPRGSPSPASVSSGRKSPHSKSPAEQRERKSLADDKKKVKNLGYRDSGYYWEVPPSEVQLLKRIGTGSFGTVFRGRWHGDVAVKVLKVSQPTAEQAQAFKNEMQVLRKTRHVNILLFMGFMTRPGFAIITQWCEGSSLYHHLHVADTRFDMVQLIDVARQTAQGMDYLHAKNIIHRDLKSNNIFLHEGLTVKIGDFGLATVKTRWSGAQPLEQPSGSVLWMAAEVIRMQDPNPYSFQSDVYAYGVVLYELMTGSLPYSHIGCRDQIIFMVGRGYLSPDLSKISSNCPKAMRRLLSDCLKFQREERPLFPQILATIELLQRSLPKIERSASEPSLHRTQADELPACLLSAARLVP

Chain of B-Raf V600E (P15056 whole entry V600E): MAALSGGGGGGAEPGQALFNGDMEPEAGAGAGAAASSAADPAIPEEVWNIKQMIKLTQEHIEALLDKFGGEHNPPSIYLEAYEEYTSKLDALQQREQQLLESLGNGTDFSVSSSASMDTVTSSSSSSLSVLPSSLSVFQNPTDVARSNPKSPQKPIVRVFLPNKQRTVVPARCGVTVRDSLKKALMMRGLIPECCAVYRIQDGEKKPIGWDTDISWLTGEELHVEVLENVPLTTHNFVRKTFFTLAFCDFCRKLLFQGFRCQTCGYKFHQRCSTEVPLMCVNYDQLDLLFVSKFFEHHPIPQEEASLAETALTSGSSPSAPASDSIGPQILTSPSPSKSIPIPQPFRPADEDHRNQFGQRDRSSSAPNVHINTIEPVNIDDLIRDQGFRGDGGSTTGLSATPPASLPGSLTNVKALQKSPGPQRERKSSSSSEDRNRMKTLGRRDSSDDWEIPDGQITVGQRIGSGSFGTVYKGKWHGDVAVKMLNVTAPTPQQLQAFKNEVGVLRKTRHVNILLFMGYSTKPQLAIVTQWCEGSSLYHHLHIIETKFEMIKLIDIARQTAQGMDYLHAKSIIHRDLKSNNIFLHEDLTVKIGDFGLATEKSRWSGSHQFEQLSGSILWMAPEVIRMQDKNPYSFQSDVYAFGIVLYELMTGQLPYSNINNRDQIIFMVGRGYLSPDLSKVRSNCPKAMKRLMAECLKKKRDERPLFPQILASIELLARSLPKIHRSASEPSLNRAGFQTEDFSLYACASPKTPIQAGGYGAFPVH
Chain of Src (P12931 whole entry): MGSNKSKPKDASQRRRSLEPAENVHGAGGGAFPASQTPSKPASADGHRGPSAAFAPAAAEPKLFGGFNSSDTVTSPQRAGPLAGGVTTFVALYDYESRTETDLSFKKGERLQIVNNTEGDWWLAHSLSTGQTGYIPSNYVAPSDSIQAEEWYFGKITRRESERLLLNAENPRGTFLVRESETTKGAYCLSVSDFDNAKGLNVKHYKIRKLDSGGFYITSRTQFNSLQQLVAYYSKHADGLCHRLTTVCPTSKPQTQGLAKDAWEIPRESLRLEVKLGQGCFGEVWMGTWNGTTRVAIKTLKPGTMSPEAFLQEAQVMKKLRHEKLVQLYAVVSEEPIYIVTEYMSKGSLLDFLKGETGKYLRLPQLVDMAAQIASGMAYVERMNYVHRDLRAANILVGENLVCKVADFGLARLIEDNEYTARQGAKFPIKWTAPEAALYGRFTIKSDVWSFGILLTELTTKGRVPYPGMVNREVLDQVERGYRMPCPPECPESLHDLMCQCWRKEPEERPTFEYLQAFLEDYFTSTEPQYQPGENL
Chain of B-Raf (P15056 whole entry): as the sequence (P15056 whole entry V600E) above, with E600V counted along it
Chain of Kit (P10721 26-976): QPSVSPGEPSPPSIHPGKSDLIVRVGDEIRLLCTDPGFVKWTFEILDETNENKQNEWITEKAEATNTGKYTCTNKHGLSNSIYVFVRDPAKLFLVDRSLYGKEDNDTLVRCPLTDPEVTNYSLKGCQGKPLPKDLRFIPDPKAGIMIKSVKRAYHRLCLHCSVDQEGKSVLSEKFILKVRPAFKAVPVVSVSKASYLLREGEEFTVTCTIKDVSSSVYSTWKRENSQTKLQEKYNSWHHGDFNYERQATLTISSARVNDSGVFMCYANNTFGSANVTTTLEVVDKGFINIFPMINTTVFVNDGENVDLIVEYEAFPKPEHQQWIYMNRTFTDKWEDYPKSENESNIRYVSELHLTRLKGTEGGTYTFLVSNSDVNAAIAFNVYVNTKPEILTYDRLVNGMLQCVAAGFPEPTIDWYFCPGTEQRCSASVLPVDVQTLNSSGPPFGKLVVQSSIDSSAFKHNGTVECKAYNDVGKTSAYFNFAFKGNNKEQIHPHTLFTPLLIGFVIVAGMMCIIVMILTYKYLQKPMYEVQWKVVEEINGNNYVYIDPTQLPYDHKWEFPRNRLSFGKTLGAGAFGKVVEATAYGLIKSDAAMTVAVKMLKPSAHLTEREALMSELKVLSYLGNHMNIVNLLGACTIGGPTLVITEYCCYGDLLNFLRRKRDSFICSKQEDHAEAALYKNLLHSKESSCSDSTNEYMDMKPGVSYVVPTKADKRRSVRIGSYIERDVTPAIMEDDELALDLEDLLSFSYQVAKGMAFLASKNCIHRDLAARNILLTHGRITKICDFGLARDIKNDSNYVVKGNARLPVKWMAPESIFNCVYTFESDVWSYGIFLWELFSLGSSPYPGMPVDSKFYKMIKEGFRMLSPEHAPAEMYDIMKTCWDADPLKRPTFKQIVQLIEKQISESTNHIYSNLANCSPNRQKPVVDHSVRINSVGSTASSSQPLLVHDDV
Chain of Kdr (P35968 20-1356): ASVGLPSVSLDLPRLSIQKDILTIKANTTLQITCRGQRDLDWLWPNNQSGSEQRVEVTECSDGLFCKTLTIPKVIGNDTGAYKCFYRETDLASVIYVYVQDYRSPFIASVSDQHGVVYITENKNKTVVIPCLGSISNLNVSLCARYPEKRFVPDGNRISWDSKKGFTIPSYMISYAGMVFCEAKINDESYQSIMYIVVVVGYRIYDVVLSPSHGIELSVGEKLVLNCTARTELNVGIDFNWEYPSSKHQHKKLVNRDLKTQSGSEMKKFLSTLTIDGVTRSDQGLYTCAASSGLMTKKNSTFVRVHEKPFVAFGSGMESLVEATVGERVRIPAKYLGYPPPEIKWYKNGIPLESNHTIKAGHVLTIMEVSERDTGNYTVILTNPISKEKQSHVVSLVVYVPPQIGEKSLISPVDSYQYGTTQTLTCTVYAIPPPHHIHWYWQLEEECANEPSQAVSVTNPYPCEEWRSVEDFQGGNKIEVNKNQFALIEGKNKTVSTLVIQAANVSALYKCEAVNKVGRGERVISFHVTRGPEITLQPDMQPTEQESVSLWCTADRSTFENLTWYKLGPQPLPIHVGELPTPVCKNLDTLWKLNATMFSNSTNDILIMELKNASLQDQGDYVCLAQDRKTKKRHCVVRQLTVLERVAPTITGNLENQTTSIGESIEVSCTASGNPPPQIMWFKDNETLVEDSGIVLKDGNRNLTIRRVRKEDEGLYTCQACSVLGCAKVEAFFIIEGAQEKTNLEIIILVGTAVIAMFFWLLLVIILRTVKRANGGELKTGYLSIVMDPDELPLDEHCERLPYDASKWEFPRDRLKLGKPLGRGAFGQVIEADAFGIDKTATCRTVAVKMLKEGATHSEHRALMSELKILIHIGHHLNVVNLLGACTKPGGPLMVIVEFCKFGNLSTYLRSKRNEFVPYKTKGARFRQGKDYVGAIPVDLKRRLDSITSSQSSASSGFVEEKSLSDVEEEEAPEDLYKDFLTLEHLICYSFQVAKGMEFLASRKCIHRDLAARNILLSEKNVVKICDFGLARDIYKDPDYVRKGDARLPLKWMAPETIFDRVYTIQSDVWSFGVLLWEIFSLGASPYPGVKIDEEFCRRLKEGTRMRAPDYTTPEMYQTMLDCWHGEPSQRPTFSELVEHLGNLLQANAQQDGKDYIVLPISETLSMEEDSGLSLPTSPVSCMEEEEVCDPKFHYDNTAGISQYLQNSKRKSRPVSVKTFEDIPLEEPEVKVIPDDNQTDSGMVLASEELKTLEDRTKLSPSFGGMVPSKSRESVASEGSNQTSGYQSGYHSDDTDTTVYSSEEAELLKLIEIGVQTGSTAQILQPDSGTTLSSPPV
Chain of C-Raf (P04049 whole entry): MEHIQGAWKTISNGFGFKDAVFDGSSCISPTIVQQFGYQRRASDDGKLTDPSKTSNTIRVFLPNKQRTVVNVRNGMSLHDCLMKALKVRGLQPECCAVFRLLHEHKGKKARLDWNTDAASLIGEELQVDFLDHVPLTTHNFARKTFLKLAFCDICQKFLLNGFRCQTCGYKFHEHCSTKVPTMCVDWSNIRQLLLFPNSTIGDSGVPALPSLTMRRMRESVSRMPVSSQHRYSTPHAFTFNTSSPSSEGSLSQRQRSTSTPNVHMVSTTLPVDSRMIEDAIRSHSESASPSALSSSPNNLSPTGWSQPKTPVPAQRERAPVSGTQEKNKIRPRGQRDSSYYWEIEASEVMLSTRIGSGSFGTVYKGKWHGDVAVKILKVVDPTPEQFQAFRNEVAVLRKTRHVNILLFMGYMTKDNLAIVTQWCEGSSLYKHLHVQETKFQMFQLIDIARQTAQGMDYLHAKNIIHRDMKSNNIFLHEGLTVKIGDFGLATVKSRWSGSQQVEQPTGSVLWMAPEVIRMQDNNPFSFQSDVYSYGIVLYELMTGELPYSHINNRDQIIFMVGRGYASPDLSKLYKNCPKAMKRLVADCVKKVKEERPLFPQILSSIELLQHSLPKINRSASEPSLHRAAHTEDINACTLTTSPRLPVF

| IC50 (C-Raf) [µM] | IC50 (Kit) [µM] | IC50 (Src) [µM] | IC50 (Kdr) [µM] | IC50 (B-Raf V600E) [µM] | IC50 (B-Raf) [µM] | IC50 (A-Raf) [µM] | Structure (SMILES) |
| --- | --- | --- | --- | --- | --- | --- | --- |
| ≤ 10 | ≤ 10 | ≤ 10 | ≤ 10 | ≤ 10 | ≤ 10 | ≤ 10 | N#Cc1ccnc2[nH]cc(C(=O)c3c(F)ccc(NS(=O)(=O)c4c(F)cccc4F)c3F)c12 [P-2037, N-[3-(4-Cyano-1H-pyrrolo[2,3-b]pyridine-3-carbonyl)-2,4-difluoro-phenyl]-2,6-difluoro-benzenesulfonamide] |
| ≤ 10 | ≤ 10 | ≤ 10 |  | ≤ 10 | ≤ 10 | ≤ 10 | CC(C)CS(=O)(=O)Nc1ccc(F)c(C(=O)c2c[nH]c3nccc(Cl)c23)c1F [P-2318, 2-Methyl-propane-1-sulfonic acid [3-(4-chloro-1H-pyrrolo[2,3-b]pyridine-3-carbonyl)-2,4-difluoro-phenyl]-amide] |
| ≤ 10 | ≤ 10 | ≤ 10 |  | ≤ 10 |  | ≤ 10 | COc1cnc2[nH]cc(C(=O)c3c(F)ccc(NS(=O)(=O)N4CCOCC4)c3F)c2c1 [P-2391, Morpholine-4-sulfonic acid [2,4-difluoro-3-(5-methoxy-1H-pyrrolo[2,3-b]pyridine-3-carbonyl)-phenyl]-amide] |
| ≤ 10 | ≤ 10 | ≤ 10 |  | ≤ 10 | ≤ 10 | ≤ 10 | N#Cc1ccnc2[nH]cc(C(=O)c3c(F)ccc(NS(=O)(=O)CC(F)(F)F)c3F)c12 [P-2341, 2,2,2-Trifluoro-ethanesulfonic acid [3-(4-cyano-1H-pyrrolo[2,3-b]pyridine-3-carbonyl)-2,4-difluoro-phenyl]-amide] |
| ≤ 10 | ≤ 10 | ≤ 10 |  | ≤ 10 |  | ≤ 10 | Cc1cnc2[nH]cc(C(=O)c3c(F)ccc(NS(=O)(=O)N4CCOCC4)c3F)c2c1 [P-2392, Morpholine-4-sulfonic acid [2,4-difluoro-3-(5-methyl-1H-pyrrolo[2,3-b]pyridine-3-carbonyl)-phenyl]-amide] |
| ≤ 10 |  | ≤ 10 | ≤ 10 | ≤ 10 | ≤ 10 | ≤ 10 | CCC(C)S(=O)(=O)Nc1ccc(F)c(C(=O)c2c[nH]c3nccc(C#N)c23)c1F (stereo not drawn) [P-2321, Butane-2-sulfonic acid [3-(4-cyano-1H-pyrrolo[2,3-b]pyridine-3-carbonyl)-2,4-difluoro-phenyl]-amide] |
| ≤ 10 | ≤ 10 | ≤ 10 | ≤ 10 | ≤ 10 | ≤ 10 | ≤ 10 | CCCS(=O)(=O)Nc1ccc(F)c(C(=O)c2c[nH]c3nccc(C#N)c23)c1F [P-2209, Propane-1-sulfonic acid [3-(4-cyano-1H-pyrrolo[2,3-b]pyridine-3-carbonyl)-2,4-difluoro-phenyl]-amide] |
| ≤ 10 | ≤ 10 | ≤ 10 | ≤ 10 | ≤ 10 | ≤ 10 | ≤ 10 | N#Cc1ccnc2[nH]cc(C(=O)c3c(F)ccc(NS(=O)(=O)c4ccc(F)cc4F)c3F)c12 [P-2038, N-[3-(4-Cyano-1H-pyrrolo[2,3-b]pyridine-3-carbonyl)-2,4-difluoro-phenyl]-2,4-difluoro-benzenesulfonamide] |
| ≤ 10 | ≤ 10 | ≤ 10 |  | ≤ 10 | ≤ 10 | ≤ 10 | N#Cc1cnc2[nH]cc(C(=O)c3c(F)ccc(NS(=O)(=O)N4CCOCC4)c3F)c2c1 [P-2393, Morpholine-4-sulfonic acid [3-(5-cyano-1H-pyrrolo[2,3-b]pyridine-3-carbonyl)-2,4-difluoro-phenyl]-amide] |
| ≤ 10 | ≤ 10 | ≤ 10 | ≤ 10 | ≤ 10 | ≤ 10 | ≤ 10 | COc1cnc2[nH]cc(C(=O)c3c(F)ccc(NS(=O)(=O)N4CCCC4)c3F)c2c1 [P-2374, Pyrrolidine-1-sulfonic acid [2,4-difluoro-3-(5-methoxy-1H-pyrrolo[2,3-b]pyridine-3-carbonyl)-phenyl]-amide] |
| ≤ 10 | ≤ 10 | ≤ 10 | ≤ 10 | ≤ 10 | ≤ 10 | ≤ 10 | CCCS(=O)(=O)Nc1ccc(F)c(C(=O)c2c[nH]c3ncc(C(=O)NOC)cc23)c1F [P-2238, 3-[2,6-Difluoro-3-(propane-1-sulfonylamino)-benzoyl]-1H-pyrrolo[2,3-b]pyridine-5-carboxylic acid methoxy-amide] |
| ≤ 10 | ≤ 10 | ≤ 10 | ≤ 10 | ≤ 10 | ≤ 10 | ≤ 10 | O=C(c1c(F)ccc(NS(=O)(=O)N2CCCC2)c1F)c1c[nH]c2nccc(Cl)c12 [P-2398, Pyrrolidine-1-sulfonic acid [3-(4-chloro-1H-pyrrolo[2,3-b]pyridine-3-carbonyl)-2,4-difluoro-phenyl]-amide] |
|  | ≤ 10 | ≤ 10 | ≤ 10 | ≤ 10 |  | ≤ 10 | CCN(CC)S(=O)(=O)Nc1ccc(F)c(C(=O)c2c[nH]c3ncc(OC)cc23)c1F [P-2389, N,N-diethylamino-sulfonic acid [2,4-difluoro-3-(5-methoxy-1H-pyrrolo[2,3-b]pyridine-3-carbonyl)-phenyl]-amide] |
| ≤ 10 | ≤ 10 | ≤ 10 |  | ≤ 10 | ≤ 10 | ≤ 10 | N#Cc1ccnc2[nH]cc(C(=O)c3c(F)ccc(NS(=O)(=O)c4cccc(F)c4)c3F)c12 [P-2039, N-[3-(4-Cyano-1H-pyrrolo[2,3-b]pyridine-3-carbonyl)-2,4-difluoro-phenyl]-3-fluoro-benzenesulfonamide] |
| ≤ 10 |  | ≤ 10 | ≤ 10 | ≤ 10 | ≤ 10 | ≤ 10 | COc1ccnc2[nH]cc(C(=O)c3c(F)ccc(NS(=O)(=O)C4CCC4)c3F)c12 [P-2364, Cyclobutanesulfonic acid [2,4-difluoro-3-(4-methoxy-1H-pyrrolo[2,3-b]pyridine-3-carbonyl)-phenyl]-amide] |
| ≤ 10 |  | ≤ 10 |  | ≤ 10 | ≤ 10 | ≤ 10 | N#Cc1cnc2[nH]cc(C(=O)c3c(F)ccc(NS(=O)(=O)CC(F)(F)F)c3F)c2c1 [P-2336, 2,2,2-Trifluoro-ethanesulfonic acid [3-(5-cyano-1H-pyrrolo[2,3-b]pyridine-3-carbonyl)-2,4-difluoro-phenyl]-amide] |
| ≤ 10 |  | ≤ 10 |  | ≤ 10 | ≤ 10 | ≤ 10 | O=C(c1c(F)ccc(NS(=O)(=O)C2CCCC2)c1F)c1c[nH]c2nccc(Cl)c12 [P-2368, Cyclopentanesulfonic acid [3-(4-chloro-1H-pyrrolo[2,3-b]pyridine-3-carbonyl)-2,4-difluoro-phenyl]-amide] |
| ≤ 10 | ≤ 10 | ≤ 10 |  | ≤ 10 | ≤ 10 | ≤ 10 | N#Cc1ccnc2[nH]cc(C(=O)c3c(F)ccc(NS(=O)(=O)C4CCCCC4)c3F)c12 [P-2369, Cyclohexanesulfonic acid [3-(4-cyano-1H-pyrrolo[2,3-b]pyridine-3-carbonyl)-2,4-difluoro-phenyl]-amide] |
| ≤ 10 | ≤ 10 | ≤ 10 | ≤ 10 | ≤ 10 |  | ≤ 10 | Cc1cnc2[nH]cc(C(=O)c3c(F)ccc(NS(=O)(=O)C4CCCC4)c3F)c2c1 [P-2365, Cyclopentanesulfonic acid [2,4-difluoro-3-(5-methyl-1H-pyrrolo[2,3-b]pyridine-3-carbonyl)-phenyl]-amide] |
| ≤ 10 | ≤ 10 | ≤ 10 | ≤ 10 | ≤ 10 |  | ≤ 10 | CCC(C)S(=O)(=O)Nc1ccc(F)c(C(=O)c2c[nH]c3nccc(Cl)c23)c1F (stereo not drawn) [P-2319, Butane-2-sulfonic acid [3-(4-chloro-1H-pyrrolo[2,3-b]pyridine-3-carbonyl)-2,4-difluoro-phenyl]-amide] |
|  | ≤ 10 | ≤ 10 | ≤ 10 | ≤ 10 |  | ≤ 10 | CCN(CC)S(=O)(=O)Nc1ccc(F)c(C(=O)c2c[nH]c3ncc(Cl)cc23)c1F [P-2384, N,N-diethylamino-sulfonic acid [3-(5-chloro-1H-pyrrolo[2,3-b]pyridine-3-carbonyl)-2,4-difluoro-phenyl]-amide] |
